Assay results as given in patent US9637496B2, “Substituted 7-azabicycles and their use as orexin receptor modulators” (priority 2013, dated 2017).
Like-named read-outs stand apart in the source and are kept apart here.

Tests used:
human orexin 2 receptor = human orexin 2 receptor (Homo sapiens (Human), UniProt O43614); experiment: Human orexin 2 receptor radioligand binding ([3H]-EMPA competition, HEK293 membranes)
human orexin 1 receptor = human orexin 1 receptor (Homo sapiens (Human), UniProt O43613); experiment: Human orexin 1 receptor radioligand binding (competitive binding, CHO membranes)
rat orexin 1 receptor = rat orexin 1 receptor (Rattus norvegicus (Rat), UniProt P56718); experiment: Rat orexin 1 receptor radioligand binding (competitive binding, HEK293 membranes)
[1] = human orexin 1 receptor, Table 2, averages of 2-20 runs, read-out: hOX1 Ki
[2] = human orexin 2 receptor, Table 2, averages of 2-20 runs, read-out: hOX2 Ki
[3] = rat orexin 1 receptor, Table 2, averages from between 2-20 runs, read-out: rOX1 Ki
[4] = human orexin 2 receptor, Table 2, averages from between 2-20 runs, read-out: hOX2 Ki
[5] = Table 2, further testing, averages from 2-20 runs, read-out: rOX1 Ki
[6] = Table 2, further testing, averages from 2-20 runs, read-out: hOX2 Ki

Sequence of human orexin 1 receptor (O43613 whole entry): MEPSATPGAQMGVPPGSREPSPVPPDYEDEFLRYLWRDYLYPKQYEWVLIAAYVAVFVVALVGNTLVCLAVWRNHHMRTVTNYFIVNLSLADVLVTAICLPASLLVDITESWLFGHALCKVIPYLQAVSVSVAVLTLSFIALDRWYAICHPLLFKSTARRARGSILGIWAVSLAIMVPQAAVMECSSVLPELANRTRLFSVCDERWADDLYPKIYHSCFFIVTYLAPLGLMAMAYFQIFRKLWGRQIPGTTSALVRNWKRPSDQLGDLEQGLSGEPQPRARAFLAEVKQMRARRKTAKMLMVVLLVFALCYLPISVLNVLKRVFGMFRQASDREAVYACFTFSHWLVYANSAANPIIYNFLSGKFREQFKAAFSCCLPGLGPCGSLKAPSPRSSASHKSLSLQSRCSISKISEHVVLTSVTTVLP
Sequence of human orexin 2 receptor (O43614 whole entry): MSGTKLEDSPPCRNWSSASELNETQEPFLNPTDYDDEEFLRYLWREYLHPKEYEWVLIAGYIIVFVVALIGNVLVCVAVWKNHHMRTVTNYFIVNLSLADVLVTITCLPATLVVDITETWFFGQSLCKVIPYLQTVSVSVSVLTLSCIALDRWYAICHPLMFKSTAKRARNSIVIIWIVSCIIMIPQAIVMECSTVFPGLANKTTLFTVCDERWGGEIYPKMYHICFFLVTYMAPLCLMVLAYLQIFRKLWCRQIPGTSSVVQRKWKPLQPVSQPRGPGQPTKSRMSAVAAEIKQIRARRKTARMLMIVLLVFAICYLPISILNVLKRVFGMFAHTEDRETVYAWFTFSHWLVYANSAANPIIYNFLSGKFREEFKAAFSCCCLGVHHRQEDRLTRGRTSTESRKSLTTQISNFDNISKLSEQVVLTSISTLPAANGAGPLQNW
Sequence of rat orexin 1 receptor (P56718 whole entry): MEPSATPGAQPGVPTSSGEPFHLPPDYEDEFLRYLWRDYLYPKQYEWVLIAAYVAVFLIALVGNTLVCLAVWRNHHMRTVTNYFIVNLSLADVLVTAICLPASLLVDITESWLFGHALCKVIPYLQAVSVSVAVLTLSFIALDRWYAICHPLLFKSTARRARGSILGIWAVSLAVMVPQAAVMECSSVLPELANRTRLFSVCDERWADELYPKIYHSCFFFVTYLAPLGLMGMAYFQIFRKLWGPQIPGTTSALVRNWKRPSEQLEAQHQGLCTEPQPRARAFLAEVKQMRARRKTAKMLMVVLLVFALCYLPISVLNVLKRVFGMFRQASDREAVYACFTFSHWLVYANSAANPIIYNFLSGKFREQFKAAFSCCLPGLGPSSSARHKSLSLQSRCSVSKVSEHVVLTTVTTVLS

Compound | Ki (rat orexin 1 receptor; [3]) | Ki (human orexin 2 receptor; [4]) | also measured
O=C(c1ccccc1-c1cccs1)N1C2CCC1C(COc1ccc(F)cn1)C2 (racemic) [Example 11, (±)-(2-(((5-fluoropyridin-2-yl)oxy)methyl)-7-azabicyclo[2.2.1]heptan-7-yl)(2-(thiophen-2-yl)phenyl)methanone] |  |  | Ki (human orexin 2 receptor): 13 nM
O=C(c1ccccc1-n1cccn1)N1C2CCC1C(COc1ccc(F)cn1)C2 (racemic) [Example 26, (±)-2-(1H-pyrazol-1-yl)phenyl)(2-(((5-fluoropyridin-2-yl)oxy)methyl)-7-azabicyclo[2.2.1]heptan-7-yl)methanone] |  |  | Ki (human orexin 1 receptor; [1]): 134 nM
O=C(c1c(F)cccc1-c1ncccn1)N1C2CCC1C(COc1ccc(F)cn1)C2 (racemic) [Example 31, (±)-(2-fluoro-6-(pyrimidin-2-yl)phenyl)(2-(((5-fluoropyridin-2-yl)oxy)methyl)-7-azabicyclo[2.2.1]heptan-7-yl)methanone] |  |  | Ki (human orexin 1 receptor): 43 nM
O=C(c1cc(F)ccc1-c1ncccn1)N1C2CCC1C(COc1ccc(F)cn1)C2 (racemic) [Example 32, (4)-(5-fluoro-2-(pyrimidin-2-yl)phenyl)(2-(((5-fluoropyridin-2-yl)oxy)methyl)-7-azabicyclo[2.2.1]heptan-7-yl)methanone] |  |  | Ki (human orexin 2 receptor; [2]): 130 nM
Cc1cc(C)nc(OCC2CC3CCC2N3C(=O)c2ccccc2-c2cccs2)n1 (racemic) [Example 46, (±)-(2-(((4,6-dimethylpyrimidin-2-yl)oxy)methyl)-7-azabicyclo[2.2.1]heptan-7-yl)(2-(thiophen-2-yl)phenyl)methanone] |  |  | Ki (human orexin 1 receptor; [1]): 111 nM
CCOc1ncc2ccccc2c1C(=O)N1C2CCC1C(COc1ccccn1)C2 (racemic) [Example 83, (±)-(3-ethoxyisoquinolin-4-yl)(2-((pyridin-2-yloxy)methyl)-7-azabicyclo[2.2.1]heptan-7-yl)methanone] |  |  | Ki (human orexin 1 receptor): 13 nM
O=C(c1cccc(F)c1-c1ncccn1)N1C2CCC1C(COc1ccc(F)cn1)C2 (racemic) [Example 124, (±)-(3-fluoro-2-(pyrimidin-2-yl)phenyl)(-2-(((5-fluoropyridin-2-yl)oxy)methyl)-7-azabicyclo[2.2.1]heptan-7-yl)methanone] |  |  | Ki (human orexin 1 receptor): 75 nM
O=C(c1cccc(F)c1-n1nccn1)N1C2CCC1C(COc1nccc(C(F)(F)F)n1)C2 (racemic) [Example 134, (±)-(3-fluoro-2-(2H-1,2,3-triazol-2-yl)phenyl)(2-(((4-(trifluoromethyl)pyrimidin-2-yl)oxy)methyl)-7-azabicyclo[2.2.1]heptan-7-yl)methanone] |  |  | Ki (rat orexin 1 receptor): 1500 nM; Ki (human orexin 1 receptor): 690 nM
COc1c(F)cccc1C(=O)N1C2CCC1C(Nc1ccc(F)cn1)C2 (racemic) [Example 237, (±)-(3-fluoro-2-methoxyphenyl)(2-((5-fluoropyridin-2-yl)amino)-7-azabicyclo[2.2.1]heptan-7-yl)methanone] | > 1000 nM |  | 
O=C(c1cccc(F)c1-n1ccnn1)N1C2CCC1C(Oc1ccc(C(F)(F)F)cn1)C2 (racemic) [Example 424] | 2700 nM | > 10000 nM | 
O=C(c1c(F)cccc1-n1nccn1)N1C2CCC1C(Oc1ccc(C(F)(F)F)cn1)C2 (racemic) [Example 425] | 587 nM |  | Ki (human orexin 2 receptor): 5100 nM
O=C(c1cccnc1-n1nccn1)N1C2CCC1C(Oc1ccc(C(F)(F)F)cn1)C2 (racemic) [Example 426] |  |  | Ki (rat orexin 1 receptor): 5400 nM; Ki (human orexin 2 receptor): > 10000 nM
Cc1ccc(C(=O)N2C3CCC2C(Oc2ccc(C(F)(F)F)cn2)C3)c(-n2nccn2)n1 (racemic) [Example 427] |  | > 10000 nM | Ki (rat orexin 1 receptor): 560 nM
Cc1cnc(-n2nccn2)c(C(=O)N2C3CCC2C(Oc2ccc(C(F)(F)F)cn2)C3)c1 (racemic) [Example 428] |  | > 10000 nM | Ki (rat orexin 1 receptor): 1100 nM
Cc1cccc(C(=O)N2C3CCC2C(Oc2ccc(C(F)(F)F)nc2)C3)c1-n1nccn1 (racemic) [Example 437] |  | > 10000 nM | Ki (rat orexin 1 receptor): > 10000 nM
O=C(c1cccc(F)c1-n1nccn1)N1C2CCC1C(Oc1ccc(C(F)(F)F)nc1)C2 (racemic) [Example 438] | > 10000 nM | > 10000 nM | 
O=C(c1c(F)cccc1-n1nccn1)N1C2CCC1C(Oc1ccc(C(F)(F)F)nc1)C2 (racemic) [Example 439] | > 10000 nM | > 10000 nM | 

Compound | Ki (rat orexin 1 receptor; [3]) | Ki (human orexin 2 receptor; [4]) | also measured
O=C(c1cccc(F)c1-n1nccn1)N1C2CCC1C(Oc1ncc(Br)cn1)C2 (racemic) [Example 441] |  | > 10000 nM | Ki (rat orexin 1 receptor): 1500 nM
O=C(c1cccc(F)c1-n1nccn1)N1C2CCC1C(Oc1cnc3ccccc3n1)C2 (racemic) [Example 442] | 349 nM | 1900 nM | 
O=C(c1cccc(F)c1-n1nccn1)N1C2CCC1C(Oc1cc(Br)cnc1Cl)C2 (racemic) [Example 443] | > 10000 nM | > 10000 nM | 
O=C(c1cccc(F)c1-n1nccn1)N1C2CCC1C(Oc1cnc(C(F)(F)F)cn1)C2 (racemic) [Example 445, (R/S)-(3-fluoro-2-(2H-1,2,3-triazol-2-yl)phenyl)(2-((5-(trifluoromethyl)pyrazin-2-yl)oxy)-7-azabicyclo[2.2.1]heptan-7-yl)methanone] |  |  | Ki (rat orexin 1 receptor; [5]): 460 nM; Ki (human orexin 2 receptor; [6]): > 10000 nM
Cc1ccc(C(=O)N2C3CCC2C(Oc2cnc(C(F)(F)F)cn2)C3)c(-n2nccn2)n1 (racemic) [Example 446, (R/S)-(6-methyl-2-(2H-1,2,3-triazol-2-yl)pyridin-3-yl)(2-((5-(trifluoromethyl)pyrazin-2-yl)oxy)-7-azabicyclo[2.2.1]heptan-7-yl)methanone] |  |  | Ki (rat orexin 1 receptor; [5]): 4700 nM; Ki (human orexin 2 receptor; [6]): > 10000 nM
O=C(c1cccc(F)c1-c1ncccn1)N1C2CCC1C(Oc1cnc(C(F)(F)F)cn1)C2 (racemic) [Example 447, (R/S)-(3-fluoro-2-(pyrimidin-2-yl)phenyl)(2-((5-(trifluoromethyl)pyrazin-2-yl)oxy)-7-azabicyclo[2.2.1]heptan-7-yl)methanone] |  |  | Ki (rat orexin 1 receptor; [5]): 293 nM; Ki (human orexin 2 receptor; [6]): > 10000 nM
Cc1coc(-c2ccc(C)nc2C(=O)N2[C@@H]3CC[C@H]2[C@H](COc2ncc(F)cn2)C3)n1 [Example 179, ((1S,2R,4R)-2-(((5-fluoropyrimidin-2-yl)oxy)methyl)-7-azabicyclo[2.2.1]heptan-7-yl)(6-methyl-3-(4-methyloxazol-2-yl)pyridin-2-yl)methanone] |  |  | Ki (rat orexin 1 receptor; rat orexin 1 receptor, Table 2, averages of 2-20 runs, read-out: rOX1 Ki): 2400 nM; Ki (human orexin 2 receptor; [2]): 5400 nM
Cc1cccc(C(=O)N2[C@@H]3CC[C@H]2[C@H](Nc2cnc(C(F)(F)F)cn2)C3)c1-c1ncco1 [Example 266, (3-methyl-2-(oxazol-2-yl)phenyl)((1S,2R,4R)-2-((5-(trifluoromethyl)pyrazin-2-yl)amino)-7-azabicyclo[2.2.1]heptan-7-yl)methanone] | 6 nM |  | 
O=C(c1cccc(F)c1-c1ncccn1)N1[C@H]2CC[C@@H]1[C@@H](Nc1cnc(C(F)(F)F)cn1)C2 [Example 297, (3-fluoro-2-(pyrimidin-2-yl)phenyl)((1R,2S,4S)-2-((5-(trifluoromethyl)pyrazin-2-yl)amino)-7-azabicyclo[2.2.1]heptan-7-yl)methanone] |  |  | Ki (rat orexin 1 receptor): 402 nM; Ki (human orexin 1 receptor; human orexin 1 receptor, Table 2, averages from between 2-20 runs, read-out: hOX1 Ki): > 10000 nM
Cc1cnc(-c2ncccn2)c(C(=O)N2[C@@H]3CC[C@H]2[C@H](Nc2ccc(C(F)(F)F)cn2)C3)c1 [Example 378, (5-methyl-2-(pyrimidin-2-yl)pyridin-3-yl)((1S,2R,4R)-2-((5-(trifluoromethyl)pyridin-2-yl)amino)-7-azabicyclo[2.2.1]heptan-7-yl)methanone] | 310 nM | > 10000 nM | 
O=C(c1cccnc1-n1nccn1)N1[C@@H]2CC[C@H]1[C@H](Nc1cnc(C(F)(F)F)cn1)C2 [Example 402, (2-(2H-1,2,3-triazol-2-yl)pyridin-3-yl)((1S,2R,4R)-2-((5-(trifluoromethyl)pyrazin-2-yl)amino)-7-azabicyclo[2.2.1]heptan-7-yl)methanone] | 575 nM | > 10000 nM | 
Cc1cnc(-c2ncccn2)c(C(=O)N2[C@@H]3CC[C@H]2[C@H](Nc2cnc(C(F)(F)F)cn2)C3)c1 [Example 404, (5-methyl-2-(pyrimidin-2-yl)pyridin-3-yl)((1S,2R,4R)-2-((5-(trifluoromethyl)pyrazin-2-yl)amino)-7-azabicyclo[2.2.1]heptan-7-yl)methanone] | 419 nM | > 10000 nM | 
COc1ccc(C(=O)N2[C@@H]3CC[C@H]2[C@H](Nc2cnc(C(F)(F)F)cn2)C3)c(Cl)n1 [Example 413, (2-chloro-6-methoxypyridin-3-yl)((1S,2R,4R)-2-((5-(trifluoromethyl)pyrazin-2-yl)amino)-7-azabicyclo[2.2.1]heptan-7-yl)methanone] | > 10000 nM | > 10000 nM | 
O=C(c1cccc(F)c1-c1ncccn1)N1[C@@H]2CC[C@H]1[C@H](Nc1nc(C(F)(F)F)cs1)C2 [Example 418, (3-fluoro-2-(pyrimidin-2-yl)phenyl)((1S,2R,4R)-2-((4-(trifluoromethyl)thiazol-2-yl)amino)-7-azabicyclo[2.2.1]heptan-7-yl)methanone] | 459 nM | 2500 nM | 
O=C(c1cccc(F)c1-c1ncccn1)N1[C@@H]2CC[C@H]1[C@H](Nc1nnc(C(F)(F)F)s1)C2 [Example 419, (3-fluoro-2-(pyrimidin-2-yl)phenyl)((1S,2R,4R)-2-((5-(trifluoromethyl)-1,3,4-thiadiazol-2-yl)amino)-7-azabicyclo[2.2.1]heptan-7-yl)methanone] | 853 nM | 7400 nM | 
Cc1cnc(-c2ncccn2)c(C(=O)N2[C@@H]3CC[C@H]2[C@H](Nc2ncc(C(F)(F)F)cc2F)C3)c1 [Example 455, ((1S,2R,4R)-2-((3-fluoro-5-(trifluoromethyl)pyridin-2-yl)amino)-7-azabicyclo[2.2.1]heptan-7-yl)(5-methyl-2-(pyrimidin-2-yl)pyridin-3-yl)methanone] |  |  | Ki (rat orexin 1 receptor; [5]): 464 nM; Ki (human orexin 2 receptor; [6]): > 10000 nM
